These results are taken from patent US9266869B2, “Substituted dialkyl(oxido)-lambda4-sulfanylidene nicotinamide derivatives as kinase inhibitors” (Allergan, Inc., priority 2013, dated 2016).

Data set [1] addresses T1, PDGFRβ (Homo sapiens (Human), UniProt P09619). Briefly: PDGFRβ Kinase Assay. It counts as biochemical. The following applies: purified cytoplasmic domain PDGFR-b protein, 36 μM ATP; read-out: PDGFRβ Enzyme Assay (IC50 nM). Here is the method:
Biochemical PDGFRβ kinase assays were performed in 96 well microtiter plates that were coated overnight with 75 μg of poly-Glu-Tyr (4:1) in 10 mM Phosphate Buffered Saline (PBS), pH 7.4.
(§1) PBS-T prior to starting the reaction. Reactions were carried out in 100 μL reaction volumes containing 36 μM ATP in kinase buffer (50 mM Hepes buffer pH 7.4, 20 mM MgCl2, 0.1 mM MnCl2 and 0.2 mM Na3VO4). […] Reactions were initiated by the addition 20 ul per well of kinase buffer containing 200-300 ng purified cytoplasmic domain PDGFR-b protein (Millipore). Following a 60 minute incubation at 30° C., the reactions were washed 2 mls per well PBS-T. 100 μl of a monoclonal anti-phosphotyrosine antibody-peroxidase conjugate diluted 1:10,000 in PBS-T was added to the wells for 30 minutes. Following a 2 mls per well wash with PBS-Tween-20, 100 μl of O-Phenylenediamine Dihydrochloride in phosphate-citrate buffer, containing urea hydrogen peroxide, was added to the wells for 7-10 minutes as a colorimetric substrate for the peroxidase. […] IC50 values for compound inhibition were calculated directly from graphs of optical density (arbitrary units) versus compound concentration following subtraction of blank values.
Target sequence in this assay (P09619 554-1106): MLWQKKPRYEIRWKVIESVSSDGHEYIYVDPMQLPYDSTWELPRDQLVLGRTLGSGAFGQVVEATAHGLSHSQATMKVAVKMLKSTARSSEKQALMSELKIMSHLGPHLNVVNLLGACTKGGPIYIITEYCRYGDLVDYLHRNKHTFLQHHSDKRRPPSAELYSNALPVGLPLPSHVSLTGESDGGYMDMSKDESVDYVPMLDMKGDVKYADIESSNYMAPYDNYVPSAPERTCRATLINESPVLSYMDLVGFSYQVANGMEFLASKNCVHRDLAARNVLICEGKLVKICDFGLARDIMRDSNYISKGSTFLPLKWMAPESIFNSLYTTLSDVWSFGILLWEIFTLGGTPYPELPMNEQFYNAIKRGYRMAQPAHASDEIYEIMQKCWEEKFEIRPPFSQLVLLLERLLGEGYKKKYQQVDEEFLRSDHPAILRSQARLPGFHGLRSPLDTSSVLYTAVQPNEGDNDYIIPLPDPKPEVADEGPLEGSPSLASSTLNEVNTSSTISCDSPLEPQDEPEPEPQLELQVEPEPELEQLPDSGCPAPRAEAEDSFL

Another data set deals with VEGFR2 (KDR) (Homo sapiens (Human), UniProt P35968). Briefly: VEGFR2 Kinase Assay. It counts as biochemical. As to conditions: purified cytoplasmic domain KDR protein, 2.7 μM ATP; read-out: VEGFR2 Enzyme Assay (IC50 nM). On the procedure:
as §1, with “VEGFR2 Kinase Assay Biochemical KDR kinase assays were performed in 96 well microtiter plates that were coated overnight with 75 μg/well of poly-Glu-[…]:1) in 10 mM Phosphate Buffered Saline (PBS), pH 7.4. […]” for “PBS-T prior to starting the reaction.”, “2.7” for “36”, “KDR” for “PDGFR-b”, “(BPS Bioscience, San Diego, Calif.).” for “(Millipore).”, “15” for “60”, “0-Phenylenediamine” for “O-Phenylenediamine”

Another data set concerns the target VEGFR2 (Homo sapiens (Human), UniProt P35968). Briefly: VEGFR2 Cellular Assay (VEGF induced intracellular calcium, FLIPR, HUVEC). The following applies: VEGF165 stimulation (10 ng/mL). The class given is cell-based. Here is the method:
(§2) VEGFR2 Cellular Assay Automated FLIPR (Fluorometric Imaging Plate Reader) technology was used to screen for inhibitors of VEGF induced increases in intracellular calcium levels in fluorescent dye loaded endothelial cells. HUVEC (human umbilical vein endothelial cells) (Clonetics) were seeded in 384-well fibronectin coated black-walled plates overnight @ 37° C./5% CO2. Cells were loaded with calcium indicator Fluo-4 for 45 minutes at 37° C. Cells were washed 2 times (Elx405, Biotek Instruments) to remove extracellular dye. For screening, cells were pre-incubated with test agents for 30 minutes, at a single concentration (10 uM) or at concentrations ranging from 0.0001 to 10.0 uM followed by VEGF165 stimulation (10 ng/mL). Changes in fluorescence at 516 nm were measured simultaneously in all 384 wells using a cooled CCD camera. Data were generated by determining max-min fluorescence levels for unstimulated, stimulated, and drug treated samples. IC50 values for test compounds were calculated from % inhibition of VEGF stimulated responses in the absence of inhibitor.

The target of data set [2] is T1, PDGFRβ. The data set can be described thus: PDGFRβ Cellular Assay (PDGF-induced intracellular calcium, FLIPR, NHDF-Ad). As to conditions: PDGF-BB stimulation (30 ng/mL). The class given is cell-based. Here is the method:
as §2, with “Automated” for “VEGFR2 Cellular Assay Automated”, “of PDGF-induced” for “of VEGF induced”, “[…]. NHDF-Ad (Normal Human Dermal Fibroblasts, Adult; Lonza)” for “cells. HUVEC (human umbilical vein endothelial cells) (Clonetics)”, “by PDGF-BB” for “by VEGF165”, “stimulation (30” for “stimulation (10”, “of PDGF-BB” for “of VEGF”
Target sequence in this assay (P09619 33-1106): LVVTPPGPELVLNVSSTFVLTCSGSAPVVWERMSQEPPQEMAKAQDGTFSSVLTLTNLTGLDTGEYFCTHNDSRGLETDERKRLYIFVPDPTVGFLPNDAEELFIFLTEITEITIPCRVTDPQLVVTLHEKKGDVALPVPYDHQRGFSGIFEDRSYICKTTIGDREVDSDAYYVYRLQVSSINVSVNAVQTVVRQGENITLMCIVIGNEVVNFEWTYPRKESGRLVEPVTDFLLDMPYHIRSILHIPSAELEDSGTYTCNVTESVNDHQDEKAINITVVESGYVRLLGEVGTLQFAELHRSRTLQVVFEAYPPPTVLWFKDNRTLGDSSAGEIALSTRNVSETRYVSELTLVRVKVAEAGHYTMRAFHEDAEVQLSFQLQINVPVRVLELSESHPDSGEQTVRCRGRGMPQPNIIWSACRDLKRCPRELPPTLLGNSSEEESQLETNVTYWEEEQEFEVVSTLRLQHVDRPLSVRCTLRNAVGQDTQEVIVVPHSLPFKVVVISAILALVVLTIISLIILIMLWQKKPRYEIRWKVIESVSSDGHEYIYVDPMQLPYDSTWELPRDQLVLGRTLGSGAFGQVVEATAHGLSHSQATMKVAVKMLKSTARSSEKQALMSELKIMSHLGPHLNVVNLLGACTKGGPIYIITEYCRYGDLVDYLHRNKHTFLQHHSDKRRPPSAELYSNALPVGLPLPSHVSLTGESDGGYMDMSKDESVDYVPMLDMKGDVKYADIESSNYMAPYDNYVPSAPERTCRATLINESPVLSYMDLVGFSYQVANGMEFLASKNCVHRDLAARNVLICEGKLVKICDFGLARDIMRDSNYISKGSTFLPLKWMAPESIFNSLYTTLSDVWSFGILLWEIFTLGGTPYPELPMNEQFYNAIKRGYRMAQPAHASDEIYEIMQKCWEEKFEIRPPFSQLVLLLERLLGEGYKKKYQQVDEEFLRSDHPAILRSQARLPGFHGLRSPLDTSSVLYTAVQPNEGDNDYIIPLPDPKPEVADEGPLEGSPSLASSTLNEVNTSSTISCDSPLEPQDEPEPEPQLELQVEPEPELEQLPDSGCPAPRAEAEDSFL
Background: Calcium flux is commonly read through the fluorescence of an indicator in the cells.

A further data set concerns VEGF permeability model. The data set can be described thus: VEGF permeability model, intravitreal injection. The class given is in vivo. As to conditions: dosed by intravitreal injection.

The structures appear in SMILES notation.

What is called IC50 is the concentration that inhibits the measured activity by half.

Sequence of VEGFR2 (KDR) (P35968 786-1356): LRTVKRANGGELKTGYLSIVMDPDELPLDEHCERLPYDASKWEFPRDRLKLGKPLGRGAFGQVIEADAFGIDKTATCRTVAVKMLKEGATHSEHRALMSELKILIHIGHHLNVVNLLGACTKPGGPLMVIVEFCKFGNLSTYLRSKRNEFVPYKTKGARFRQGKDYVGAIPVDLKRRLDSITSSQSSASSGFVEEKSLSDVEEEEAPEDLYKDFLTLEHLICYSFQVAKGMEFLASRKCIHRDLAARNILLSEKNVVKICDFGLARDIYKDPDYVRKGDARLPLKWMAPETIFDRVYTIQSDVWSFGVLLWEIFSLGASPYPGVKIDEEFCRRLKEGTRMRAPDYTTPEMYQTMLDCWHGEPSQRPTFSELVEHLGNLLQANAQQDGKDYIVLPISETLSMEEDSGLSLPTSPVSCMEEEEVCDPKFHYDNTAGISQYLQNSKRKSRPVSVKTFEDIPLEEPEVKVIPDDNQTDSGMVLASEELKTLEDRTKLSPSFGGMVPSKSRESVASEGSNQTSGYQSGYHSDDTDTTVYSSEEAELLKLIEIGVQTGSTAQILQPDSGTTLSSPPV
Sequence of VEGFR2 (P35968 20-1356): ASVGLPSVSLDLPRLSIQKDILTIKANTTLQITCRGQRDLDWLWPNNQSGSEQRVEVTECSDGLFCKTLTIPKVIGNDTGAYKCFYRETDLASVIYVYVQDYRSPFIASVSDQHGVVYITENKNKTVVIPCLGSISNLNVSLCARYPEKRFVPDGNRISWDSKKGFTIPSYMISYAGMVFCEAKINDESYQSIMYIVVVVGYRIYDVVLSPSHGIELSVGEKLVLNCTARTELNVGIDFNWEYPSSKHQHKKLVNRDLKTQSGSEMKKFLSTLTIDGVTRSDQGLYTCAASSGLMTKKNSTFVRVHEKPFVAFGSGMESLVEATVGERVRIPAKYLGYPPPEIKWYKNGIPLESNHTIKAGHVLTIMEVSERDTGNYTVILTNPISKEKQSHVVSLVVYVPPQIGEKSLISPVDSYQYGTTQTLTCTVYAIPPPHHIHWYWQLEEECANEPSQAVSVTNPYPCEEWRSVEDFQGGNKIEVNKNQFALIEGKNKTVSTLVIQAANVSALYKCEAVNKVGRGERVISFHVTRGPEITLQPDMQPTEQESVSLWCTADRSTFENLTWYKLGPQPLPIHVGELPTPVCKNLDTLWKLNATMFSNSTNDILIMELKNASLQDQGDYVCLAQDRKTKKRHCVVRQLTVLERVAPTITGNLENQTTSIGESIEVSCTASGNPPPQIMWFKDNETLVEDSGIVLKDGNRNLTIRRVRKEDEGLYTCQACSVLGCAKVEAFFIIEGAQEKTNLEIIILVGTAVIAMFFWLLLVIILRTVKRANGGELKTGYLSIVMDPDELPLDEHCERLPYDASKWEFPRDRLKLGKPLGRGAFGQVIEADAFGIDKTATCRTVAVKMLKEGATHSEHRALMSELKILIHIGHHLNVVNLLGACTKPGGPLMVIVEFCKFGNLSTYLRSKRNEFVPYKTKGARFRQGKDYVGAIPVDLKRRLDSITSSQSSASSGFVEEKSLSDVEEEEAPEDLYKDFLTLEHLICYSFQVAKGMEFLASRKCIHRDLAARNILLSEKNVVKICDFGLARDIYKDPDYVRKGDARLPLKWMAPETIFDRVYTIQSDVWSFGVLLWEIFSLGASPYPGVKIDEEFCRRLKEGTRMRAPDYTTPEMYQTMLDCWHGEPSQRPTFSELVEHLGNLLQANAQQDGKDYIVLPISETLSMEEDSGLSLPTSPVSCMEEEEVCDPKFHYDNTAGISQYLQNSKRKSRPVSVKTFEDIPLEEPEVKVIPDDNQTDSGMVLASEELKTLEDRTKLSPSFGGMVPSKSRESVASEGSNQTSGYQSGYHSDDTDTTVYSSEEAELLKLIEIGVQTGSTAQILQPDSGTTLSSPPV

Turning to `Cc1ccoc1C(=O)Nc1cccc(C#Cc2cc(C(=O)N=S(C)(C)=O)cnc2N)c1` [Example 1, 6-Amino-N-[dimethyl(oxido)-λ^4-sulfanylidene]-5-({3-[(3-methyl-2-furoyl)amino]phenyl}ethynyl)nicotinamide], the IC50 was found to be 16 nM on PDGFRβ [1], 6 nM on VEGFR2 (KDR), 1 nM at VEGFR2 and 11 nM at PDGFRβ [2].

`Cc1ccoc1C(=O)Nc1cccc(C#Cc2cncc(C(=O)N=S3(=O)CCCC3)c2)c1` [Example 3, 5-({3-[(3-Methyl-2-furoyl)amino]phenyl}ethynyl)-N-(1-oxidotetrahydro-1H-λ^4-thien-1-ylidene)nicotinamide]: the IC50 came out at 34 nM at PDGFRβ [1], 2 nM at VEGFR2 (KDR), 3 nM at VEGFR2 and 66 nM on PDGFRβ [2].

As to `Cc1ccoc1C(=O)Nc1cccc(C#Cc2cc(C(=O)N=S3(=O)CCCC3)cnc2N)c1` [Example 4, 6-Amino-5-({3-[(3-methyl-2-furoyl)amino]phenyl}ethynyl)-N-(1-oxidotetrahydro-1H-1λ^4-thien-1-ylidene)nicotinamide], the IC50 came to 30 nM on PDGFRβ [1], 2 nM at VEGFR2 (KDR), 2 nM at VEGFR2 and 15 nM on PDGFRβ [2].

In the case of `Cc1ccc(F)c(NC(=O)Nc2cccc(C#Cc3cncc(C(=O)N=S(C)(C)=O)c3)c2)c1` [Example 8, N-[Dimethyl(oxido)-λ^4-sulfanylidene]-5-{[3-({[(2-fluoro-5-methylphenyl)amino]carbonyl}amino)phenyl]ethynyl}nicotinamide], the 50% inhibitory concentration (IC50) at VEGFR2 (KDR) was 3 nM; on VEGFR2, 10 nM; at PDGFRβ [2], 28 nM.

As for `COC(=O)CCCCS(C)(=O)=NC(=O)c1cnc(N)c(C#Cc2cccc(NC(=O)c3occc3C)c2)c1` (stereo not shown) [Example 23, Methyl 5-(N-{[6-amino-5-({3-[(3-methyl-2-furoyl)amino]phenyl}ethynyl)pyridin-3-yl]carbonyl}-S-methylsulfonimidoyl)pentanoate], the “in vivo efficacy in the VEGF permeability model” value (shortened to “in vivo efficacy”) in the data set on VEGF permeability model is “good in vivo efficacy”. Moreover, the IC50 on PDGFRβ [1] worked out at 54 nM; on VEGFR2 (KDR), 7 nM; on VEGFR2, 1 nM; at PDGFRβ [2], 31 nM.

In the case of `COC(=O)CCCCS(C)(=O)=NC(=O)c1cnc(N)c(C#Cc2cccc(NC(=O)c3cccc(C)c3)c2)c1` (stereo not shown) [Example 26, Methyl 5-(N-{[6-amino-5-({3-[(3-methylbenzoyl)amino]phenyl}ethynyl)pyridin-3-yl]carbonyl}-S-methylsulfonimidoyl)pentanoate], the “in vivo efficacy” value with VEGF permeability model is “good in vivo efficacy”. The IC50 was 11 nM on PDGFRβ [1], 4 nM on VEGFR2 (KDR), 1 nM on VEGFR2 and 10 nM on PDGFRβ [2].

Regarding `COC(=O)CCCCS(C)(=O)=NC(=O)c1cnc(N)c(C#Cc2cccc(NC(=O)c3cc(C(F)(F)F)ccc3F)c2)c1` (stereo not shown) [Example 27, Methyl 5-[N-({6-amino-5-[(3-{[2-fluoro-5-(trifluoromethyl)benzoyl]amino}phenyl)ethynyl]pyridin-3-yl}carbonyl)-S-methylsulfonimidoyl]pentanoate], the IC50 worked out at 40 nM at PDGFRβ [1], 10 nM on VEGFR2 (KDR), 1 nM on VEGFR2 and 19 nM at PDGFRβ [2].

Turning to `COC(=O)CCCCS(C)(=O)=NC(=O)c1cnc(N)c(C#Cc2cccc(NC(=O)c3cccc(C(F)(F)F)c3)c2)c1` (stereo not shown) [Example 28, Methyl 5-[N-({6-amino-5-[(3-{[3-(trifluoromethyl)benzoyl]amino}phenyl)ethynyl]pyridin-3-yl}carbonyl)-S-methylsulfonimidoyl]pentanoate], the IC50 at PDGFRβ [1] amounted to 9 nM; on VEGFR2 (KDR), 4 nM; at VEGFR2, 4 nM; on PDGFRβ [2] it was 12 nM.

For `COC(=O)CCCCS(C)(=O)=NC(=O)c1cnc(N)c(C#Cc2cccc(NC(=O)c3ccc(Cl)c(C(F)(F)F)c3)c2)c1` (stereo not shown) [Example 29, Methyl 5-[N-({6-amino-5-[(3-{[4-chloro-3-(trifluoromethyl)benzoyl]amino}phenyl)ethynyl]pyridin-3-yl}carbonyl)-S-methylsulfonimidoyl]pentanoate], the IC50 on PDGFRβ [1] came out at 25 nM; on VEGFR2 (KDR) it was 4 nM; on VEGFR2 it was 6 nM; at PDGFRβ [2], 15 nM.

Take `COC(=O)CCCCS(C)(=O)=NC(=O)c1cnc(N)c(C#Cc2cccc(NC(=O)c3cccc(OC)c3)c2)c1` (stereo not shown) [Example 30, Methyl 5-(N-{[6-amino-5-({3-[(3-methoxybenzoyl)amino]phenyl}ethynyl)pyridin-3-yl]carbonyl}-S-methylsulfonimidoyl)pentanoate]: the “in vivo efficacy” value with VEGF permeability model is on record as “good in vivo efficacy”. Also, the 50% inhibitory concentration (IC50) stood at 14 nM on PDGFRβ [1], 5 nM on VEGFR2 (KDR), 1 nM on VEGFR2 and 9 nM at PDGFRβ [2].

Turning to `COC(=O)CCCCS(C)(=O)=NC(=O)c1cnc(N)c(C#Cc2cccc(NC(=O)c3ccc(OC)c(OC)c3)c2)c1` (stereo not shown) [Example 31, Methyl 5-(N-{[6-amino-5-({3-[(3,4-dimethoxybenzoyl)amino]phenyl}ethynyl)pyridin-3-yl]carbonyl}-S-methylsulfonimidoyl)pentanoate], the half-inhibitory concentration (IC50) on PDGFRβ [1] worked out at 38 nM; on VEGFR2 (KDR), 15 nM; on VEGFR2, 4 nM; at PDGFRβ [2], 13 nM.

Turning to `COC(=O)CCCCS(C)(=O)=NC(=O)c1cnc(N)c(C#Cc2cccc(C(=O)Nc3cc(C(C)(C)C)on3)c2)c1` (stereo not shown) [Example 36, Methyl 5-[N-({6-amino-5-[(3-{[(5-tert-butylisoxazol-3-yl)amino]carbonyl}phenyl)ethynyl]pyridin-3-yl}carbonyl)-S-methylsulfonimidoyl]pentanoate], the results for the IC50 on VEGFR2 (KDR), on VEGFR2 and at PDGFRβ [2] were 10 nM, 1 nM and 18 nM, respectively.

As for `COC(=O)CCCCS(C)(=O)=NC(=O)c1cnc(N)c(C#Cc2cccc(NC(=O)Nc3cc(C)ccc3F)c2)c1` (stereo not shown) [Example 37, Methyl 5-{N-[(6-amino-5-{[3-({[(2-fluoro-5-methylphenyl)amino]carbonyl}amino)phenyl]ethynyl}pyridin-3-yl)carbonyl]-S-methylsulfonimidoyl}pentanoate], the IC50 at PDGFRβ [1] was 14 nM; on VEGFR2 (KDR), 5 nM; at PDGFRβ [2], 44 nM.

Regarding `COC(=O)CCCCS(C)(=O)=NC(=O)c1cnc(N)c(C#Cc2cccc(NC(=O)Nc3cccc(C)c3)c2)c1` (stereo not shown) [Example 38, Methyl 5-{N-[(6-amino-5-{[3-({[(3-methylphenyl)amino]carbonyl}amino)phenyl]ethynyl}pyridin-3-yl)carbonyl]-S-methylsulfonimidoyl}pentanoate], the IC50 at PDGFRβ [1] was 13 nM; at VEGFR2 (KDR) it was 4 nM; at PDGFRβ [2], 25 nM.
